# Legend:
# Interstitial collagenase = target: T1, Interstitial collagenase (Homo sapiens, UniProt P03956); assay: Inhibition of MMP-1 (human fibroblast collagenase)
# T1 sequence (P03956 whole entry): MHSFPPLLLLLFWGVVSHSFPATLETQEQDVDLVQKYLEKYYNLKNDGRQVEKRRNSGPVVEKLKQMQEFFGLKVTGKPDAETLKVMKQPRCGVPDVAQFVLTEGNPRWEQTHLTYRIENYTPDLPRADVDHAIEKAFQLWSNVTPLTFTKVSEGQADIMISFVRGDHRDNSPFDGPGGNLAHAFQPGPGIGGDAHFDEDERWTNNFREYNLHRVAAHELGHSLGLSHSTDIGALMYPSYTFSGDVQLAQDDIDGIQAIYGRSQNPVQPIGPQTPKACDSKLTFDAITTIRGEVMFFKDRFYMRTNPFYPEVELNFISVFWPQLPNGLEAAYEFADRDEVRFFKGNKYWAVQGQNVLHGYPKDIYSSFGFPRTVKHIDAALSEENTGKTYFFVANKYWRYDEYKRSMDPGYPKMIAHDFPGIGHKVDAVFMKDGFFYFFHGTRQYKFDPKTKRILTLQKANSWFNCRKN
# Stromelysin-1 = Stromelysin-1 (Homo sapiens, UniProt P08254); assay: Inhibition of MMP-3 (human fibroblast stromelysin)
# Chain of Stromelysin-1 (P08254 whole entry): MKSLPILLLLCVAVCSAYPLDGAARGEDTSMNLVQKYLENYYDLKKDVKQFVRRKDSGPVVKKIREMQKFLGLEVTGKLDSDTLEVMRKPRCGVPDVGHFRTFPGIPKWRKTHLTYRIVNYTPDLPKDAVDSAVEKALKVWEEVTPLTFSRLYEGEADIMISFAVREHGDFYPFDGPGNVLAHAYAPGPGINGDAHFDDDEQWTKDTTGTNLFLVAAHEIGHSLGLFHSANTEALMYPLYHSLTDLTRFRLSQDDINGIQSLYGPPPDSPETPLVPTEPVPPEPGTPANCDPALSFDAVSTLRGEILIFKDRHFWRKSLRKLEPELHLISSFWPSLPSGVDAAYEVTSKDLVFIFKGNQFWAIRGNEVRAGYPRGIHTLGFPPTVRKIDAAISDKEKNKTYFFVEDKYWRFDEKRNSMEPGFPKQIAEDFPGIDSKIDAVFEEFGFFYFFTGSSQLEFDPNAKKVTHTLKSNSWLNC
# [1] = target: Matrix metalloproteinase-9 (Homo sapiens, UniProt P14780); assay: Inhibition of MMP-9 (matrix metalloprotease-9, gelatinase B)
# Chain of Matrix metalloproteinase-9 (P14780 whole entry): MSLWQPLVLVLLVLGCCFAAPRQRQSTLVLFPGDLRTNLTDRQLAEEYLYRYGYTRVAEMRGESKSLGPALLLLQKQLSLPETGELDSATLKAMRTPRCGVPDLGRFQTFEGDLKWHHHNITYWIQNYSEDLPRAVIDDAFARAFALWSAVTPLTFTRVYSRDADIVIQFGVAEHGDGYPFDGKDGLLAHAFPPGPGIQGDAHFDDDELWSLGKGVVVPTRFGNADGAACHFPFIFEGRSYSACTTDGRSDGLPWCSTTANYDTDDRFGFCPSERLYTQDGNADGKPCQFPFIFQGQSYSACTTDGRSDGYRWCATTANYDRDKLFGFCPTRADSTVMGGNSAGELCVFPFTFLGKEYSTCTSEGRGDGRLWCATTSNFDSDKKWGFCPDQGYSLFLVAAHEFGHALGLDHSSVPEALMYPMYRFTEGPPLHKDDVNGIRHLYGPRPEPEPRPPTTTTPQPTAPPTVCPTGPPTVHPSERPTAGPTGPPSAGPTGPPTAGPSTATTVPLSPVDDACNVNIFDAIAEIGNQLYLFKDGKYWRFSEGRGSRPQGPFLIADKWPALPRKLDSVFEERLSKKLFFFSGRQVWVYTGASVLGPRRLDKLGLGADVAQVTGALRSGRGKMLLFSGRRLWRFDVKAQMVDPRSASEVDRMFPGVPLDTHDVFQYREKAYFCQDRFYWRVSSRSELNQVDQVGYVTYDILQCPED
# Homo sapiens = species on record: Homo sapiens; assay: Compound was tested for its ability to suppress the release of TNF-alpha (TNF-WBA) in human whole blood after stimulation with LPS.; type: functional, organism-based
SMILES,Ki (Interstitial collagenase) [nM],Ki (Stromelysin-1) [nM],Ki [1] [nM],IC50 (Homo sapiens) [nM]
CNC(=O)[C@@H]1CCCCN(S(=O)(=O)c2c(C)cc(C)cc2C)CCC[C@H](C(=O)NO)[C@@H](CC(C)C)C(=O)N1,2.3,15,< 1,1600
CNC(=O)[C@@H]1CCCCN(S(=O)(=O)C(F)(F)F)CCC[C@H](C(=O)NO)[C@@H](CC(C)C)C(=O)N1,4,118,< 1,1300
CNC(=O)[C@@H]1CCCCNCCC[C@H](C(=O)NO)[C@@H](CC(C)C)C(=O)N1,< 1,–,12.8,2700

# Continued, values first:
Ki (Interstitial collagenase) [nM],Ki (Stromelysin-1) [nM],Ki [1] [nM],IC50 (Homo sapiens) [nM],SMILES
< 1,3,< 1,1400,CNC(=O)[C@@H]1CCCCN(C(=O)OC(C)(C)C)CCC[C@H](C(=O)NO)[C@@H](CC(C)C)C(=O)N1
< 1,99,1.6,950,CNC(=O)[C@@H]1CCCCN(S(=O)(=O)c2ccc(N)cc2)CCC[C@H](C(=O)NO)[C@@H](CC(C)C)C(=O)N1
< 1,3.4,< 1,1300,CNC(=O)[C@@H]1CCCCN(S(=O)(=O)c2ccccc2)CCC[C@H](C(=O)NO)[C@@H](CC(C)C)C(=O)N1
< 1,12,2.7,1400,CNC(=O)[C@@H]1CCCCN(S(=O)(=O)c2cn(C)cn2)CCC[C@H](C(=O)NO)[C@@H](CC(C)C)C(=O)N1

# Source: ChEMBL document CHEMBL1132042, “Macrocyclic hydroxamate inhibitors of matrix metalloproteinases and TNF-alpha production” (Bioorg Med Chem Lett, 1999)
